Measured values as given in PMC9045296, “Development of Antifungal Peptides against Cryptococcus neoformans; Leveraging Knowledge about the cdc50Δ Mutant Susceptibility for Lead Compound Development” (Microbiology Spectrum, 2022).
Converted amounts (≈) assume the structure as drawn. Where two headings read alike, the source gives them in different places. Residues, ends and D or L forms follow the SMILES beside them. *: point of attachment. Myristoyl = CCCCCCCCCCCCCC(=O)*

Columns and labels:
[1] = tested on: cdc50Δ mutant strain; assay type: cell-based, Cryptococcus neoformans; details: Table S1, drug alone
Procedure: (§1) Our assays followed standard CLSI protocol for broth microdilution assays using yeasts ([32]). Microbes were passaged in YPD media at 37°C with mixing for 2 days before harvesting with an inoculation loop to prepare monocultures on Sabouraud Dextrose Agar (SDA) plates. Monocultures on SDA plates were incubated for 2 days at 37°C before harvesting cells for microdilution assays. RPMI media (100 μL) was charged to each of the 96 wells in a 96-well plate, with an additional 100 μL in the first column. Peptide-DMSO solution (4 μL) at 12.8 mg/mL was charged to each of the wells in the first column. The 100 μL was serially diluted by a factor of 2 from the first column to the 11th column. Microbe inoculant was then prepared. An inoculation loop was used to transfer 1–3 colonies of cells to 1 mL phosphate buffer solution (PBS). The PBS and microbe solution was made uniform by vortex mixing. Cell concentration was computed by comparing the absorbance at 530 nm to 1x McFarland standard solution and multiplying the resulting ratio by 10^7 cell/mL conversion factor. Plate inoculant was prepared by diluting the PBS microbe solution to 5000 cell/mL, in RPMI media. A 100 μL aliquot of cells was transferred to each of the wells on the plate other than column 11 for the no growth control. The operating volume was 200 μL, with 500 CFU per well for a final concentration of 2.5*10^3 cells/mL. Inoculated plates were incubated for 48 h at 37°C and read at 24 and 48 h ([33]).

[2] = tested on: C. neoformans wild-type strain H99; test: microbe, parasite or virus in culture; assay type: cell-based, Cryptococcus neoformans; details: for MIC: Cryptococcus neoformans
Procedure: as §1

[3] = tested on: C. neoformans wild-type strain H99; details: cited from earlier work
Source text: (§2) Recently, mutation studies discovered an essential role of Cryptococcus lipid flippase in echinocandin resistance ([6]). The lipid flippase is composed of the core P4 type ATPase (P4-ATPase) and a regulatory subunit Cdc50 ([7]). […] This loop region of Cdc50 has been reported in other organisms to bind to the P4-ATPase to regulate flippase activity ([8]).

[4] = tested on: cdc50Δ mutant strain; details: cited from earlier work
Source text: as §2

[5] = tested on: human red blood cells (RBCs); test: Hemolysis assay; assay type: cell-based; details: human RBC, 1 h at 37°C, relative to Triton X-100
Procedure: Operating conditions were 100 μL and 2.5*10^8cell/mL. […] The plate was incubated at 37°C for 1 h. […] The scans were run in triplicate.

[6] = tested on: exofacial PS on C. neoformans cells; test: AF350-annexin V flow cytometry assay; assay type: cell-based, Cryptococcus neoformans; details: 0.128 mg/mL peptide, 5*10^6 cell/mL, 20 min at 25°C, triplicate; control 0.2 ± 0.1%
Source text: We sought to determine whether the activities of the peptides were related to the lipid-flipping activity of the P4-ATPase. […] The intensity of the AF350-annexin V signal corresponds to concentration of PS on the exofacial side of the membrane. The propidium iodine signal corresponds to cell viability. […] Single cells were first selected and gated based on morphology to ensure homogeneity among the cell population (4A, 4B). We examined cells with low propidium iodine intensity (PI-A < 9 RU) and high AF350-annexin V intensity (Annexin V-A > 9 RU) (4C, 4D). Under these gating parameters there should be, respectively, low nonspecific cell death and high exofacial PS.
Stock microbes were defrosted from the –80°C freezer and were passed twice for 48 h each in YPD media. The YPD media was removed by spinning down and the supernatant was decanted. Pelletized cells were resuspended in 1 mL PBS media and washed for 5 min with incubation at 25°C and 250 RPM. Washed cells were spun down again and suspended in 1 mL of PBS solution. cells were diluted 20-fold into 1 mL fungal working solution in an eppendorf. Cell concentration was quantified via comparison to 1X McFarlain’s standard on a plate reader using the absorbance value at 530 nm. An aliquot of 1*10^6 cells in 100 μL was created (1*10^7cell/mL). A 100 μL aliquot of peptide working solution at 0.256 mg/mL was added to the cell suspension for final operating parameters of 200 μL, 0.128 mg/mL peptide, and 5*10^6cell/mL. The cells were incubated for 20 min at 25°C and 250RPM. Baseline and experimental samples were prepared in triplicate. Cells were stained using an operating concentration of 0.001 mg/mL Propidium Iodine (PI) and a 40-fold dilution of Alexa Fluor 350 labeled annexin V as per manufactures instructions. After staining the cells, samples were spun down and supernatant decanted. Cells were then fixed in 4% formaldehyde for 5 min. Fixed cells were spun down and supernatant decanted and resuspended in 400 μL 1% formaldehyde for flowcytometry. Samples were collected at a slow flow rate on a MACS Quant 10 device (Miltenyi Biotech, Auburn, CA) with 50,000 events collected per injection.

[7] = tested on: C. neoformans H99; test: SDS and plate spotting assay; assay type: cell-based, Cryptococcus neoformans; details: H99 pretreated with 128 μg/mL peptide for 1 h at 30°C; compared to untreated or DMSO controls
Procedure: Briefly, cultures of C. neoformans were grown in YPD and then spotted on YPD plates containing 0.03% SDS.
To test cell integrity, C. neoformans strains from 3 mL YPD overnight cultures were washed, resuspended, and serially diluted (1:10) in dH2O and spotted (5 μl) on YPD agar plates or YPD agar plates containing 0.03% SDS and incubated for 2 days at 30°C and 37°C. […] Of each strain, yeast cells were inoculated into liquid YPD with 128 μg/mL or 64 μg/mL peptide and co-incubated for 1h at 30°C. And then, 10-fold serial dilutions were prepared, and 5 μl of each was spotted on YPD and YPD agar plates containing 0.03% SDS. The results were photographed after a 48 h of incubation. Their growth was determined by serial dilutions and the fungal colonies were assessed by CFU numbers.

[8] = tested on: C. neoformans H99; assay type: cell-based, Cryptococcus neoformans
Procedure: (§3) Again, 200 μL was the operating volume, 500CFU per well, 2.5*10^3 cell/mL. Plates were incubated for 48 h at 37°C and read thereafter. The Fractional Inhibitory Concentration Index were calculated in Equation 1: FICIndex=FICA/MICA+FICB/MICB

[9] = tested on: ΔCDC50 mutant strain; assay type: cell-based, Cryptococcus neoformans
Procedure: as §3

Row | Structure (SMILES) | MIC ΔCDC50 [1] [µg/mL] | MIC ([2]; Table S1, drug alone, wild type H99, read-out: MIC H99) [µg/mL] | MIC ([2]; drug alone, H99 wild type, CLSI broth microdilution, RPMI, 2.5*10^3 cells/mL, 37°C, read at 24 and 48 h, read-out: MIC) [µg/mL] | MIC value of caspofungin [3] [µg/mL] | MIC value of caspofungin [4] [µg/mL] | hemolysis at the concentrations needed for synergy [5] | hemolytic activity (fractional lysis) ([5]; varying concentrations, absorbance 410 nm) | percentage of cells with low propidium iodine (PI-A < 9 RU) and high AF350-annexin V intensity (Annexin V-A > 9 RU) [6] | growth in terms of CFU on agar medium with 0.03% SDS [7] | MIC H99 ([2]; Table S1, drug alone, wild type H99) [µg/mL] | MIC (FIC) of caspofungin in the presence of the AW9-Ma peptide ([8]; C. neoformans wild type, combination with caspofungin) [µg/mL] | FIC H99 Caspofungin ([8]; Table S1, concentration of caspofungin in combination with the peptide, H99) [µg/mL] | FIC H99 Peptide ([8]; Table S1, concentration of peptide in combination with caspofungin, H99) [µg/mL] | FIC ΔCDC50 Caspofungin ([9]; Table S1, concentration of caspofungin in combination with the peptide) [µg/mL] | FIC ΔCDC50 Peptide ([9]; Table S1, concentration of peptide in combination with caspofungin) [µg/mL]
1 | CC[C@H](C)C[C@H](C)CCCCCCCCC(=O)N[C@H]1C[C@@H](O)[C@@H](NCCN)NC(=O)[C@@H]2[C@@H](O)CCN2C(=O)[C@H]([C@H](O)CCN)NC(=O)[C@H]([C@H](O)[C@@H](O)c2ccc(O)cc2)NC(=O)[C@@H]2C[C@@H](O)CN2C(=O)[C@H]([C@@H](C)O)NC1=O [caspofungin, reference compound] | 4 (≈ 3.66 µM) | 16 (≈ 14.6 µM) | 16 (≈ 14.6 µM) | 16 | 4 |  |  |  |  |  |  |  |  |  | 
2 | CCCCCCCCCCCCCC(=O)N[C@@H](Cc1c[nH]c2ccccc12)C(=O)NCC(=O)NCC(=O)N[C@H](C(=O)N[C@@H](CCCCN)C(=O)N[C@@H](CCCCN)C(=O)N[C@@H](CC(N)=O)C(=O)N[C@@H](Cc1ccc(O)cc1)C(=O)N[C@@H](C)C(=O)O)[C@@H](C)CC [AW9-Ma] (Myristoyl-WGGIKKNYA-OH) |  |  |  |  |  | low amounts of hemolysis | concentrate-dependent minimal amount of hemolysis | 67.6% ± 2.3 | significantly reduced growth | 64 (≈ 51.3 µM) | 4 | 4 | 16 | 0.125 | 0.125
